Reference: patent publication US20240270762A1, “PENICILLIN-BINDING PROTEIN INHIBITORS” (priority 2021, published 2024)
≈ marks a conversion by molar mass, not a printed value.

Tests used:
[1] = test system: P. aeruginosa ATCC 35151; assay: microbe, parasite or virus in culture; format: cell-based; conditions: Pseudomonas aeruginosa, ATCC35151, read-out: MIC P. aeruginosa ATCC 35151
[2] = test system: P. aeruginosa ATCC 27853; assay: microbe, parasite or virus in culture; format: cell-based; conditions: Pseudomonas aeruginosa, ATCC27853, read-out: MIC P. aeruginosa ATCC 27853
[3] = test system: E. coli AG100; assay: microbe, parasite or virus in culture; format: cell-based; conditions: Escherichia coli, AG100, read-out: MIC E. coli AG100
[4] = test system: E. coli D22; assay: microbe, parasite or virus in culture; format: cell-based; conditions: Escherichia coli, D22, read-out: MIC E. coli D22
[5] = test system: N. gonorrhoeae MS11; assay: Liquid broth MIC in Fastidious broth; conditions: Neisseria gonorrhoeae, MS11, read-out: Minimum Inhibitory Concentration (MIC), N. gonorrhoeae MS11
[6] = test system: N. gonorrhoeae WHO M; assay: Liquid broth MIC in Fastidious broth; conditions: Neisseria gonorrhoeae, read-out: Minimum Inhibitory Concentration (MIC), N. gonorrhoeae WHO M
[7] = test system: N. gonorrhoeae WHO Z; assay: Liquid broth MIC in Fastidious broth; conditions: Neisseria gonorrhoeae, read-out: Minimum Inhibitory Concentration (MIC), N. gonorrhoeae WHO Z
[8] = test system: K. pneumoniae UMM; assay: microbe, parasite or virus in culture; format: cell-based; conditions: Klebsiella pneumoniae, read-out: MIC K. pneumoniae UMM
[9] = test system: N. gonorrhoeae FA1090; assay: Liquid broth MIC in Fastidious broth; conditions: Neisseria gonorrhoeae, FA1090, read-out: Minimum Inhibitory Concentration (MIC), N. gonorrhoeae FA 1090
[10] = test system: N. gonorrhoeae WHO X; assay: Liquid broth MIC in Fastidious broth; conditions: Neisseria gonorrhoeae, read-out: Minimum Inhibitory Concentration (MIC), N. gonorrhoeae WHO X
[11] = test system: P. aeruginosa (ΔmexAB-oprM); assay: Broth microdilution MIC in CAMHB; format: cell-based; conditions: Pseudomonas aeruginosa; read-out: MIC P. aeruginosa ΔmexAB-oprM
[12] = test system: A. baumannii ATCC 19606; assay: microbe, parasite or virus in culture; format: cell-based; conditions: Acinetobacter baumannii, ATCC19606, read-out: MIC, A. baumannii ATCC 19606
[13] = test system: K. pneumoniae SI-117; assay: microbe, parasite or virus in culture; format: cell-based; conditions: Klebsiella pneumoniae, SI117, read-out: MIC K. pneumoniae SI-117
[14] = test system: E. coli ATCC 25922; assay: microbe, parasite or virus in culture; format: cell-based; conditions: Escherichia coli, ATCC25922, read-out: MIC E. coli 25922
[15] = test system: K. pneumoniae 848844; assay: microbe, parasite or virus in culture; format: cell-based; conditions: Klebsiella pneumoniae, 848844, read-out: MIC K. pneumoniae 848844
[16] = test system: N. gonorrhoeae WHO K; assay: Liquid broth MIC in Fastidious broth; conditions: Neisseria gonorrhoeae, read-out: Minimum Inhibitory Concentration (MIC), N. gonorrhoeae WHO K
[17] = test system: E. coli 901C; assay: microbe, parasite or virus in culture; format: cell-based; conditions: Escherichia coli, read-out: MIC E. coli 901C

SMILES: O=C(O)c1cccc2c1OB(O)[C@@H](NC(=O)C(NC(=O)C(F)(F)F)c1ccc(P(=O)(O)O)cc1)C2 (stereo partly drawn) [Example 172, (3R)-2-hydroxy-3-(2-(4-phosphonophenyl)-2-(2,2,2-trifluoroacetamido)acetamido)-3,4-dihydro-2H-benzo[e][1,2]oxaborinine-8-carboxylic acid]
- MIC [1]: 32 to 64 µg/mL (≈ 62 to 124 µM)
- MIC [2]: > 128 µg/mL
- MIC [3]: > 128 µg/mL
- MIC [4]: > 128 µg/mL
- MIC [5]: 16 to 32 µg/mL (≈ 31 to 62 µM)
- MIC [6]: 4 to 8 µg/mL (≈ 7.75 to 15.5 µM)
- MIC [7]: 16 to 32 µg/mL (≈ 31 to 62 µM)
- MIC [8]: > 128 µg/mL
- MIC [9]: 4 to 8 µg/mL (≈ 7.75 to 15.5 µM)
- MIC [10]: 16 to 32 µg/mL (≈ 31 to 62 µM)
- MIC [11]: > 128 µg/mL
- MIC [12]: > 128 µg/mL
- MIC [13]: > 128 µg/mL
- MIC [14]: > 128 µg/mL
- MIC [15]: > 128 µg/mL
- MIC [16]: 16 to 32 µg/mL (≈ 31 to 62 µM)
- MIC [17]: 32 to 64 µg/mL (≈ 62 to 124 µM)

SMILES: Cn1cccc(C(=O)N[C@H](C(=O)N[C@H]2Cc3cccc(C(=O)O)c3OB2O)c2ccc(P(=O)(O)O)cc2)c1=O (single isomer, unassigned) [Example 181]
- MIC [1]: 8 to 16 µg/mL (≈ 14.4 to 28.8 µM)
- MIC [2]: > 128 µg/mL
- MIC [3]: > 128 µg/mL
- MIC [4]: > 128 µg/mL
- MIC [5]: 4 to 8 µg/mL (≈ 7.2 to 14.4 µM)
- MIC [6]: 16 to 32 µg/mL (≈ 28.8 to 57.6 µM)
- MIC [7]: 16 to 32 µg/mL (≈ 28.8 to 57.6 µM)
- MIC [8]: > 128 µg/mL
- MIC [9]: 1 to 2 µg/mL (≈ 1.8 to 3.6 µM)
- MIC [10]: 16 to 32 µg/mL (≈ 28.8 to 57.6 µM)
- MIC [11]: > 128 µg/mL
- MIC [12]: > 128 µg/mL
- MIC [13]: > 128 µg/mL
- MIC [14]: > 128 µg/mL
- MIC [15]: > 128 µg/mL
- MIC [16]: 16 to 32 µg/mL (≈ 28.8 to 57.6 µM)
- MIC [17]: 32 to 64 µg/mL (≈ 57.6 to 115 µM)

SMILES: O=C1CC[C@H](C(=O)NC(C(=O)N[C@H]2Cc3cccc(C(=O)O)c3OB2O)c2ccc(P(=O)(O)O)cc2)N1 (stereo partly drawn) [Example 53, (3R)-2-hydroxy-3-(2-((R)-5-oxopyrrolidine-2-carboxamido)-2-(4-phosphonophenyl)acetamido)-3,4-dihydro-2H-benzo[e][1,2]oxaborinine-8-carboxylic acid]
- MIC [1]: 8 to 16 µg/mL (≈ 15.1 to 30.1 µM)
- MIC [2]: > 128 µg/mL
- MIC [3]: > 128 µg/mL
- MIC [4]: 32 to 64 µg/mL (≈ 60.2 to 120 µM)
- MIC [5]: 1 to 2 µg/mL (≈ 1.88 to 3.76 µM)
- MIC [6]: 1 to 2 µg/mL (≈ 1.88 to 3.76 µM)
- MIC [7]: 16 to 32 µg/mL (≈ 30.1 to 60.2 µM)
- MIC [8]: > 128 µg/mL
- MIC [9]: 1 to 2 µg/mL (≈ 1.88 to 3.76 µM)
- MIC [10]: 16 to 32 µg/mL (≈ 30.1 to 60.2 µM)
- MIC [11]: > 128 µg/mL
- MIC [12]: > 128 µg/mL
- MIC [13]: > 128 µg/mL
- MIC [14]: > 128 µg/mL
- MIC [15]: > 128 µg/mL
- MIC [16]: 16 to 32 µg/mL (≈ 30.1 to 60.2 µM)
- MIC [17]: 8 to 16 µg/mL (≈ 15.1 to 30.1 µM)

SMILES: CN1CCC[C@@H]1C(=O)N[C@@H](C(=O)N[C@H]1Cc2cccc(C(=O)O)c2OB1O)c1ccc(P(=O)(O)O)cc1 (racemic) [Example 54, (R)-2-hydroxy-3-((S)-2-((R)-1-methylpyrrolidine-2-carboxamido)-2-(4-phosphonophenyl)acetamido)-3,4-dihydro-2H-benzo[e][1,2]oxaborinine-8-carboxylic acid and (R)-2-hydroxy-3-((R)-2-((R)-1-methylpyrrolidine-2-carboxamido)-2-(4-phosphonophenyl)acetamido)-3,4-dihydro-2H-benzo[e][1,2]oxaborinine-8-carboxylic acid]
- MIC [1]: 32 to 64 µg/mL (≈ 60.2 to 120 µM)
- MIC [2]: > 128 µg/mL
- MIC [3]: > 128 µg/mL
- MIC [4]: > 128 µg/mL
- MIC [5]: 16 to 32 µg/mL (≈ 30.1 to 60.2 µM)
- MIC [6]: 4 to 8 µg/mL (≈ 7.53 to 15.1 µM)
- MIC [7]: 16 to 32 µg/mL (≈ 30.1 to 60.2 µM)
- MIC [8]: > 128 µg/mL
- MIC [9]: 4 to 8 µg/mL (≈ 7.53 to 15.1 µM)
- MIC [10]: 16 to 32 µg/mL (≈ 30.1 to 60.2 µM)
- MIC [11]: > 128 µg/mL
- MIC [12]: > 128 µg/mL
- MIC [13]: > 128 µg/mL
- MIC [14]: > 128 µg/mL
- MIC [15]: > 128 µg/mL
- MIC [16]: 16 to 32 µg/mL (≈ 30.1 to 60.2 µM)
- MIC [17]: 32 to 64 µg/mL (≈ 60.2 to 120 µM)

SMILES: CC(C)S(=O)(=O)NC(C(=O)N[C@H]1Cc2cccc(C(=O)O)c2OB1O)c1ccc(P(=O)(O)O)cc1 (stereo partly drawn) [Example 60, (3R)-2-hydroxy-3-(2-((1-methylethyl)sulfonamido)-2-(4-phosphonophenyl)acetamido)-3,4-dihydro-2H-benzo[e][1,2]oxaborinine-8-carboxylic acid]
- MIC [1]: 32 to 64 µg/mL (≈ 60.8 to 122 µM)
- MIC [2]: > 128 µg/mL
- MIC [3]: > 128 µg/mL
- MIC [4]: > 128 µg/mL
- MIC [5]: 16 to 32 µg/mL (≈ 30.4 to 60.8 µM)
- MIC [6]: 4 to 8 µg/mL (≈ 7.6 to 15.2 µM)
- MIC [7]: 16 to 32 µg/mL (≈ 30.4 to 60.8 µM)
- MIC [8]: > 128 µg/mL
- MIC [9]: 4 to 8 µg/mL (≈ 7.6 to 15.2 µM)
- MIC [10]: 16 to 32 µg/mL (≈ 30.4 to 60.8 µM)
- MIC [11]: > 128 µg/mL
- MIC [12]: > 128 µg/mL
- MIC [13]: > 128 µg/mL
- MIC [14]: > 128 µg/mL
- MIC [15]: > 128 µg/mL
- MIC [16]: 16 to 32 µg/mL (≈ 30.4 to 60.8 µM)
- MIC [17]: 32 to 64 µg/mL (≈ 60.8 to 122 µM)
